Here are results for one compound from publication PMC5268738, “A sequential multi-target Mps1 phosphorylation cascade promotes spindle checkpoint signaling” (eLife, 2017).

The subject of test [1] is Bub1 S459 phosphorylation in HeLa cells. The note with it: nocodazole and MG132; reversine 1 µM. The procedure:
HeLa Tet-On cells were initially purchased from Clontech (Mountain View, CA), and were cultured in Dulbecco’s Modified Eagle Medium (DMEM, Invitrogen, Carlsbad, CA) supplemented with 10% fetal bovine serum and 2 mM L-glutamine. The cells were authenticated by genome sequencing and metaphase chromosome spread, and were routinely checked by 4',6-diamidino-2-phenylindole (DAPI) staining to ascertain that they were free of mycoplasma contamination. For G1/S synchronization, cells were treated with 2 mM thymidine (Sigma, St. Louis, MO) for 14–16 hr. For mitotic arrest, cells were treated with 330 nM or 1 µM nocodazole (Sigma) or 100 nM taxol (Sigma) for 12–14 hr. Other chemicals used in this study were: RO3306 (Sigma) at 20 µM, BI 2536 (Selleck Chemicals, Houston, TX) at 1 µM, MG132 (Selleck Chemicals) at 10 µM, okadaic acid (LC lab, Woburn, MA) at 500 nM, and reversine (Cayman Chemical, Ann Arbor, MI) at 1 µM.

The next test concerns APC/C^Cdc20. Description: APC/C^Cdc20 inhibition by MCC components (securin ubiquitination assay). The following applies: Bub1–Mad1 mixture, Cdc20^ΔN60, Mad2^Mono, BubR1^N; reversine 10 μM where used. The class given is biochemical, Xenopus APC/C, human Cdc20.
Test [2] relates to N-terminal fragment of Cdc20 (residues 1–170, Cdc20^N). Description: in vitro pull-down of Mps1-treated Mad1^E–Mad2 by Cdc20^N beads. The class given is binding, human. The following applies: Ni^2+ beads with Cdc20^N170-His6; Mad1 pre-treated with kinase domain of Mps1; anti-Mad1 blot. On the procedure:
Expression of Cdc20-His6 proteins containing the N-terminal regions of Cdc20 was induced by 1 mM isopropyl β-D-1-thiogalactopyranoside (IPTG) at 37 °C for 6 h. Harvested pellets were lysed in denaturing lysis buffer (100 mM NaH2PO4, 10 mM Tris-HCl, pH 8.0, 8 M Urea), and incubated overnight by gentle rocking at room temperature. After centrifugation, the supernatants were incubated with pre-equilibrated Ni^2+-NTA beads (Qiagen). Protein-bound beads were washed with 15 volumes of denaturing wash buffer (100 mM NaH2PO4, 10 mM Tris-HCl, pH 6.3, 8 M Urea). The proteins were then eluted with denaturing elution buffer (100 mM NaH2PO4, 10 mM Tris-HCl, pH 4.5, 8 M Urea). The eluted proteins were then dialyzed into the storage buffer (50 mM Tris, pH 8.0, 200 mM NaCl, 5% glycerol, 1 mM β-mercaptoethanol). […]
For kinase assays, 1 μM Cdc20^ΔN60, 40 μM Mad1^E–Mad2, or 400 nM Bub1^ΔK–Bub3 was incubated with 40 nM Bub1, 500 nM Mps1, and/or 50 nM Cdk1–Cyclin B1 at room temperature for 30 min in the kinase buffer (25 mM Tris-HCl, pH 7.7, 100 mM NaCl, 10 mM MgCl2, 5 mM NaF, 20 mM β-glycerophosphate, 0.1 mM Na3VO4 and 1 mM DTT) supplemented with 1 mM ATP. The reaction mixtures were stopped with the appropriate kinase inhibitors for further protein-binding assays, or quenched with the SDS loading buffer and analyzed by Coomassie blue staining or Western blotting. […]

For `c1nc2nc(Nc3ccc(N4CCOCC4)cc3)nc(NC3CCCCC3)c2[nH]1` [reversine, reference compound], the “Bub1 S459 phosphorylation in mitosis (in words)” value in test [1] is on record as “reduced”. Further, in the test with APC/C^Cdc20, the “APC/C^Cdc20 inhibition by the MCC mixture with Bub1–Mad1 mixture (in words)” value is given as “greatly weakened APC/C^Cdc20 inhibition by the MCC mixture”. Besides, the “binding of Mps1-treated Mad1^E–Mad2 to Cdc20^N (in words)” value in test [2] is recorded as “greatly reduced this interaction”.
